Test [1] concerns Antibody to AB-Pinaca-KLH (raised against immunogen 2 of Example 6). Put plainly: Competitive ELISA characterising antibodies to AB-Pinaca-KLH with Tracer-1 (Example 9). It counts as binding. Particulars: for % CR (percentage cross-reactivity): AB-Pinaca = 100.00; for IC50 (standard concentration which produces 50% inhibition of maximal signal): calibration curves 0-20 ng/ml. On the procedure:
The wells of an enhanced binding 96 well polystyrene microtitre plate were coated with IgG fraction of antiserum raised to AB-Pinaca-KLH (Immunogen 2 of Example 6), diluted in 10 mM Tris, pH8.5 (125 μl/well). The appropriate antibody coating dilution was determined using standard ELISA checkerboard techniques. The plate was incubated for 2 hours at 37° C., washed 4 times over 10 minutes with Tris buffered saline containing Tween 20 (TBST) and tapped dry. Standard solutions of AB-Pinaca pentanoic acid were prepared in TBST at 0, 0.31, 0.63, 1.25, 2.50, 5.0, 10.0 and 20.0 ng/ml, and 50 μl of each was added to the appropriate wells. 75 μl of Tracer-1 (Example 7) diluted in Tris buffer (pH 7.2) containing EDTA, D-mannitol, sucrose, thimerosal and BSA, was added to each of the wells. The appropriate dilution of tracer was also determined using standard ELISA checkerboard techniques. The plate was incubated at 25° C. for 1 hour. Excess unbound tracer was removed by washing 6 times over a 10-15 minute period with TBST and tapped dry. 125 μl of tetramethylbenzidine (TMB) substrate solution was added to each well of the plate that was then incubated for 20 minutes in the dark at room temperature. The reaction was terminated by addition of 125 μl 0.2 M H2SO4 to each well. The absorbance was measured at 450 nm using a microtitre plate reader. In order to determine the specificity of the competitive ELISAs, standard solutions of a range of structurally similar compounds were prepared in TBST. Using calibration curves generated from these compounds (0-20 ng/ml), the cross-reactivity was determined.

The subject of test [2] is AB-PINACA antibody (raised against immunogen 2 of Example 6). Nature of the test: AB-PINACA ELISA, final validated kit with Tracer-2 (Example 10), specificity. The test is classed as binding. The following applies: for % Cross-Reactivity: AB-PINACA N-Pentanoic acid = 100. On the procedure: A microtitre plates was precoated with AB-PINACA antibody (raised against immunogen 2 of Example 6). Pinaca derivative (antigen), if present in the sample competes with the horseradish peroxidase labelled AB-PINACA (enzyme labelled antigen, herein Tracer-2 of Example 8) for a limited number of antibody sites on the microtitre plate. After incubation at room temperature to allow a competition reaction to take place, the microtitre plate was washed to remove excess reagents. The enzyme substrate ([…]) was added. After an incubation period to allow maximum colour development, the colour reaction was stopped by the addition of acid. This produces a colour change from blue to yellow, and the absorbances are read at 450 nm. A standard curve was then constructed to determine the Pinaca derivative's concentration in the sample.
All reagents were left to reach room temperature (+15 to +25° C.) prior to use. In order to minimise edge effects microtitre plate was sealed with an adhesive plate sealer.
The assay was performed in duplicate. The following layout was used for a test plate where each box represents 2 wells.
• a) The following was pipetted into the appropriate wells of the microtitre plate:
• b) The microtitre plate was gently tapped plate from side to side for a few seconds. • c) The microtitre plate was covered with a plate sealer before incubating for 30 minutes at room temperature (+15 to +25° C.) in the dark. • d) The plate was inverted and the liquid was tapped out. • e) The plate was washed 6 times with diluted wash buffer (ensuring all wells were filled), over a 10-15 minute period. After the final wash the liquid was discarded and the plate was tapped onto lint free tissue paper until completely dry. • f) Immediately after washing, 125 μL of the one shot substrate II solution was pipetted into each well using a multichannel pipette. The microtitre plate was gently tapped from side to side and incubated for (20±2 minutes) at room temperature (+15 to +25° C.) in the dark. • g) The colour reaction was stopped by the addition of 100 μL of stop solution per well. A colour change from blue to yellow should be evident. • h) The optical density was measured at 450 nm within 10 minutes of stopping the colour reaction. The use of a 630 nm filter is recommended as the reference wavelength, if available. Standard Curve and Interpretation of Results • a) The mean absorbance of the standards, controls and samples were calculated. • b) The absorbances of standards against log10 (standard concentration) were plotted. • c) The control and sample concentrations were read from the standard curve. • d) To obtain concentrations for urine samples in ng/mL, the results were multiplied by 3 to take into account the dilution factor. • e) To obtain concentrations for whole blood samples in ng/mL, the results were multiplied by 4 to take into account the dilution factor. • f) It is recommended that a 4 parameter curve fit method is used when generating the standard curve. Limits of Detection
(In general: An ELISA detects its analyte on a solid surface through an enzyme-linked reagent.)

The values below come from US10509046B2, “Detection of indazole synthetic cannabinoids” (Randox Laboratories Limited, priority 2014, dated 2019).

Where a name gives a salt, the structure may show the parent alone.

For the compound `CC(C)C(NC(=O)c1nn(CCCCCO)c2ccccc12)C(N)=O` (stereo not shown) [1-(5-OHpentyl) AB-Pinaca, 1-(5-hydroxypentyl) AB-Pinaca], the “% CR (percentage cross-reactivity)” value in test [1] was determined as 124.80%. Further, the “IC50 (standard concentration which produces 50% inhibition of maximal signal)” value in test [1] was 0.887 ng/mL. In addition, the “B/Bo (Percentage B/B0)” value in test [1] (standard conc 0.31 ng/ml) stood at 68.9%; in test [1] (standard conc 0.63 ng/ml), 56.6%; in test [1] (standard conc 1.25 ng/ml), 43.6%; in test [1] (standard conc 2.50 ng/ml), 33.6%; in test [1] (standard conc 5.00 ng/ml), 24.5%; in test [1] (standard conc 10.00 ng/ml) it was 17.3%. Moreover, the “B/Bo (Percentage B/B0)” value in test [1] (standard conc 20.00 ng/ml) turned out to be 11.8%. Further, the “OD (absorbance at 450 nm)” value is on record as 1.415 in test [1] (standard conc 0.31 ng/ml); 1.163 in test [1] (standard conc 0.63 ng/ml); 0.896 in test [1] (standard conc 1.25 ng/ml); 0.690 in test [1] (standard conc 2.50 ng/ml); 0.504 in test [1] (standard conc 5.00 ng/ml); 0.356 in test [1] (standard conc 10.00 ng/ml). The “OD (absorbance at 450 nm)” value in test [1] (standard conc 20.00 ng/ml) was 0.242. For the same compound, the “% Cross-Reactivity” value in test [2] stood at 83.8%.

For `CC(C)C(NC(=O)c1nn(CCCCCF)c2ccccc12)C(N)=O` (stereo not shown) [5-fluoro AB-Pinaca, 5-fluoropentyl AB-Pinaca], the “% CR (percentage cross-reactivity)” value in test [1] was 203.49%. Besides, the “IC50 (standard concentration which produces 50% inhibition of maximal signal)” value in test [1] was determined as 0.544 ng/mL. Further, the “B/Bo (Percentage B/B0)” value was determined as 60.2% in test [1] (standard conc 0.31 ng/ml); 47.7% in test [1] (standard conc 0.63 ng/ml); 36.5% in test [1] (standard conc 1.25 ng/ml); 28.0% in test [1] (standard conc 2.50 ng/ml); 20.6% in test [1] (standard conc 5.00 ng/ml); 14.5% in test [1] (standard conc 10.00 ng/ml). Also, in test [1] (standard conc 20.00 ng/ml), the “B/Bo (Percentage B/B0)” value is listed as 10.1%. For the same compound, the “OD (absorbance at 450 nm)” value in test [1] (standard conc 0.31 ng/ml) stood at 1.351; in test [1] (standard conc 0.63 ng/ml), 1.070; in test [1] (standard conc 1.25 ng/ml), 0.819; in test [1] (standard conc 2.50 ng/ml), 0.629; in test [1] (standard conc 5.00 ng/ml), 0.462; in test [1] (standard conc 10.00 ng/ml) it was 0.326. Also, in test [1] (standard conc 20.00 ng/ml), the “OD (absorbance at 450 nm)” value is listed as 0.227. Moreover, in test [2], the “% Cross-Reactivity” value came out at 98.9%.

As to `CC(C)C(NC(=O)c1nn(Cc2ccc(F)cc2)c2ccccc12)C(N)=O` (stereo not shown) [AB-Fubinaca, N-(1-amino-3-methyl-1-oxobutan-2-yl)-1-(4-fluorobenzyl)-1H-indazole-3-carboxamide], the “% CR (percentage cross-reactivity)” value in test [1] is 71.60%. In test [1], the “IC50 (standard concentration which produces 50% inhibition of maximal signal)” value came to 1.546 ng/mL. The “B/Bo (Percentage B/B0)” value in test [1] (standard conc 0.31 ng/ml) was determined as 72.0%; in test [1] (standard conc 0.63 ng/ml) it was 64.4%; in test [1] (standard conc 1.25 ng/ml), 52.3%; in test [1] (standard conc 2.50 ng/ml) it was 42.7%; in test [1] (standard conc 5.00 ng/ml) it was 32.4%; in test [1] (standard conc 10.00 ng/ml), 22.9%. Moreover, in test [1] (standard conc 20.00 ng/ml), the “B/Bo (Percentage B/B0)” value is 15.7%. Further, the “OD (absorbance at 450 nm)” value in test [1] (standard conc 0.31 ng/ml) was 1.541; in test [1] (standard conc 0.63 ng/ml), 1.379; in test [1] (standard conc 1.25 ng/ml) it was 1.120; in test [1] (standard conc 2.50 ng/ml), 0.915; in test [1] (standard conc 5.00 ng/ml) it was 0.695; in test [1] (standard conc 10.00 ng/ml) it was 0.491. Further, the “OD (absorbance at 450 nm)” value in test [1] (standard conc 20.00 ng/ml) was found to be 0.337. Moreover, the “% Cross-Reactivity” value in test [2] is 35.3%.

With `CC(C)C(NC(=O)c1nn(CCCCC(=O)O)c2ccccc12)C(N)=O` (stereo not shown) [AB-Pinaca pentanoic acid], the “% CR (percentage cross-reactivity)” value in test [1] is reported as 64.25%. In test [1], the “IC50 (standard concentration which produces 50% inhibition of maximal signal)” value is 1.723 ng/mL. In addition, the “B/Bo (Percentage B/B0)” value amounted to 77.4% in test [1] (standard conc 0.31 ng/ml); 69.7% in test [1] (standard conc 0.63 ng/ml); 55.8% in test [1] (standard conc 1.25 ng/ml); 42.2% in test [1] (standard conc 2.50 ng/ml); 30.7% in test [1] (standard conc 5.00 ng/ml); 21.2% in test [1] (standard conc 10.00 ng/ml). Also, the “B/Bo (Percentage B/B0)” value in test [1] (standard conc 20.00 ng/ml) is 14.5%. For the same compound, the “OD (absorbance at 450 nm)” value in test [1] (standard conc 0.31 ng/ml) is given as 1.698; in test [1] (standard conc 0.63 ng/ml) it was 1.529; in test [1] (standard conc 1.25 ng/ml), 1.223; in test [1] (standard conc 2.50 ng/ml), 0.926; in test [1] (standard conc 5.00 ng/ml), 0.673; in test [1] (standard conc 10.00 ng/ml), 0.465. Further, in test [1] (standard conc 20.00 ng/ml), the “OD (absorbance at 450 nm)” value stood at 0.317. In addition, the “% Cross-Reactivity” value in test [2] is 100%.

Regarding `CCCCCn1cc(C(=O)O)c2ccccc21` [PB-22 3-Carboxyindole metabolite], in test [2], the “Concentration of compounds that elicit a negative response at the indicated concentration” value (“Concentration … at the indicated concentration” below) turned out to be 100 ng/mL.

Turning to `O=C(Oc1cccc2cccnc12)c1cn(CCCCCO)c2ccccc12` [PB-22 N-(5-hydroxypentyl) metabolite], in test [2], the “% Cross-Reactivity” value is under 1%.

Regarding `O=C(O)CCCCn1cc(C(=O)Oc2cccc3cccnc23)c2ccccc21` [PB-22 N-Pentanoic acid], in test [2], the “% Cross-Reactivity” value is under 1%.

Turning to `CCCCCn1cc(C(=O)Oc2cccc3cccnc23)c2ccccc21` [PB-22], in test [2], the “Concentration … at the indicated concentration” value came to 100 ng/mL.

For the compound `CC(C)NCC(O)COc1cccc2ccccc12` (stereo not shown) [Propranolol HCL], the “Concentration … at the indicated concentration” value in test [2] turned out to be 10000 ng/mL.

For `CCCCCn1cc(C(=O)c2ccc(OC)cc2)c2ccccc21` [RCS-4], the “% Cross-Reactivity” value in test [2] is given as under 1%.

Take `COc1ccccc1CC(=O)c1cn(CCC2CCCCC2)c2ccccc12` [RCS-8]: in test [2], the “Concentration … at the indicated concentration” value was 100 ng/mL.

With `CNC(=C[N+](=O)[O-])NCCSCc1ccc(CN(C)C)o1` [Ranitidine HCl], the “Concentration … at the indicated concentration” value in test [2] stood at 10000 ng/mL.

As for `O=C(O)CCCCn1cc(C(=O)NC23CC4CC(CC(C4)C2)C3)c2ccccc21` [SDB-001 N-Pentanoic acid], the “% Cross-Reactivity” value in test [2] was under 1%.

`O=C(NC12CC3CC(CC(C3)C1)C2)c1cn(CCCCCF)c2ccccc12` [STS-135]: the “Concentration … at the indicated concentration” value in test [2] stood at 100 ng/mL.

`O=C(c1cccc2ccccc12)c1nn(CCCCCF)c2ccccc12` [THJ 2201]: the “Concentration … at the indicated concentration” value in test [2] was 100 ng/mL.

On to `CC1(C)C(C(=O)c2cn(CCCCC(=O)O)c3ccccc23)C1(C)C` [UR-144 N-Pentanoic acid], for which the “Concentration … at the indicated concentration” value in test [2] was 100 ng/mL.

For `CCCCCn1cc(C(=O)C2C(C)(C)C2(C)C)c2ccccc21` [UR-144], in test [2], the “Concentration … at the indicated concentration” value is 100 ng/mL.

For the compound `CC1(C)C(C(=O)c2cn(CCCCCF)c3ccccc23)C1(C)C` [XLR-11], the “Concentration … at the indicated concentration” value in test [2] came out at 100 ng/mL.
